From US9540391B2, “Isomannide derivatives as inhibitors of soluble epoxide hydrolase” (SANOFI, priority 2013, dated 2017)
Where a name gives a salt, the structure may show the parent alone.

Biological target: T1, recombinant sEH (Homo sapiens, UniProt P34913)
T1 construct: made in house; host or cells: Sf9 insect cells
T1 sequence (P34913 1-555): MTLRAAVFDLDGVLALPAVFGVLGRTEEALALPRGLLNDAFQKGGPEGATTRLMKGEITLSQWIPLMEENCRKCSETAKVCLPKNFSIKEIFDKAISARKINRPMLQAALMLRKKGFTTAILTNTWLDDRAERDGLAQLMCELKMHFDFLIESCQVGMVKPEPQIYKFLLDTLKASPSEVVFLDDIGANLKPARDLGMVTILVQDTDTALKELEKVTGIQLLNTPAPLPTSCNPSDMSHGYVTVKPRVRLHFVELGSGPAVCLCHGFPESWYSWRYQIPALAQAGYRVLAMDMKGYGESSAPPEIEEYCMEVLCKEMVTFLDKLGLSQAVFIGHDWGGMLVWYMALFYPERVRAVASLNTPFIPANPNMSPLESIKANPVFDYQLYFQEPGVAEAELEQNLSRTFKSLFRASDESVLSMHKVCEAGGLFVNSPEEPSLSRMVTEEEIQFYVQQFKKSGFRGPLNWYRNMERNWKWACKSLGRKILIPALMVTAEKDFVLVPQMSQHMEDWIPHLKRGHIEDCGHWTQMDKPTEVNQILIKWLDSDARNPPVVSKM
Experiment: biochemical screening assay for inhibition of soluble epoxide hydrolase (fluorometric, Phome substrate)
Method in brief: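 Human sEH from Sf9 cells (2 nM final) was pre-incubated 15 min at 30 °C with compound (0.0001–10 μM), then reacted 60 min at 30 °C with 5 μM Phome in 25 mM Hepes/0.01% albumin. Fluorescence of released 6-methoxy-2-naphthaldehyde was read before substrate and at end; IC50 from % inhibition.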

IC50	Compound
2940 nM	O=C(O)CC[C@H]1CO[C@H]2[C@@H]1OC[C@@H]2NC(=O)NC1CCCCC1 [Example 377, 3-[(3S,3aR,6S,6aR)-6-(3-cyclohexyl-ureido)-hexahydro-furo[3,2-b]furan-3-yl]-propionic acid]
68 nM	O=C(Nc1cccc(C(F)(F)F)c1)N[C@H]1CO[C@@H]2[C@@H](CCc3ccccc3)CO[C@@H]21 [Example 368, 1-((3S,3aR,6S,6aR)-6-Phenethyl-hexahydro-furo[3,2-b]furan-3-yl)-3-(3-trifluoromethyl-phenyl)-urea]
82 nM	O=C(Nc1ccc(OCc2ccccc2)cc1)NC1COC2C(C#Cc3ccccc3)COC12 [Example 287, 1-(4-Benzyloxy-phenyl)-3-[(3S,3aR,6R)-6-((S)-phenylethynyl)-hexahydro-furo[3,2-b]furan-3-yl]-urea]
61 nM	N#CC1COC2C(NC(=O)Nc3ccc(Cl)c(Cl)c3)COC12 (stereo not shown) [Example 384]
12 nM	Cc1ncccc1O[C@H]1CO[C@H]2[C@@H]1OC[C@@H]2NC(=O)NC1CCC(C(C)(C)O)CC1 (stereo partly drawn) [Example 280, 1-[4-(1-Hydroxy-1-methyl-ethyl)-cyclohexyl]-3-[(3S,3aR,6S,6aS)-6-(2-methyl-pyridin-3-yloxy)-hexa-hydro-furo[3,2-b]furan-3-yl]-urea]
69 nM	O=C(NCCc1cccs1)N[C@H]1CO[C@H]2[C@@H]1OC[C@@H]2/C=C\c1ccccc1 [Example 330, 1-[(3S,3aR,6S,6aR)-6-((Z)-Styryl)-hexahydro-furo[3,2-b]furan-3-yl]-3-(2-thiophen-2-yl-ethyl)-urea]
21 nM	Cc1cc(C)cc(NC(=O)NC2COC3C(C#Cc4ccccc4)COC23)c1 [Example 285, 1-(3,5-Dimethyl-phenyl)-3-[(3S,3aR,6R)-6-((S)-phenylethynyl)-hexahydro-furo[3,2-b]furan-3-yl]-urea]
39 nM	O=C(NCCc1ccccc1)N[C@H]1CO[C@@H]2[C@@H](CCc3ccsc3)CO[C@@H]21 [Example 373, 1-Phenethyl-3-[(3S,3aR,6S,6aR)-6-(2-thiophen-3-yl-ethyl)-hexahydro-furo[3,2-b]furan-3-yl]-urea]
11 nM	O=C(Nc1ccc(OC(F)(F)F)cc1)N[C@H]1CO[C@H]2[C@@H]1OC[C@@H]2/C=C\c1ccsc1 [Example 345, 1-[(3S,3aR,6S,6aR)-6-((Z)-2-Thiophen-3-yl-vinyl)-hexahydro-furo[3,2-b]furan-3-yl]-3-(4-trifluoromethoxy-phenyl)-urea]
22 nM	O=C(Nc1ccc(Cl)c(Cl)c1)NC1COC2C(CCc3ccccc3)COC12 [Example 358, 1-(3,4-Dichloro-phenyl)-3-[(3S,3aR,6R)-6-((S)-phenethyl)-hexahydro-furo[3,2-b]furan-3-yl]-urea]

Second part, the compound before the results:

Compound	IC50
COCC(C)NC(=O)N[C@H]1CO[C@H]2[C@@H]1OC[C@@H]2Oc1cccnc1C (stereo partly drawn) [Example 183, 1-(2-Methoxy-1-methyl-ethyl)-3-[(3S,3aR,6S,6aS)-6-(2-methyl-pyridin-3-yloxy)-hexahydro-furo[3,2-b]furan-3-yl]-urea]	846 nM
Cc1ncccc1O[C@H]1CO[C@H]2[C@@H]1OC[C@@H]2NC(=O)NC1CCOCC1 [Example 216, 1-[(3S,3aR,6S,6aS)-6-(2-Methyl-pyridin-3-yloxy)-hexahydro-furo[3,2-b]furan-3-yl]-3-(tetrahydro-pyran-4-yl)-urea]	125 nM
O=C(N[C@H]1CO[C@H]2[C@@H]1OC[C@@H]2Oc1ccc(F)cc1)N1CCC(F)(F)CC1 [Example 94, 4,4-difluoro-piperidine-1-carboxylic acid [(3S,3aR,6S,6aS)-6-(4-fluoro-phenoxy)-hexahydro-furo[3,2-b]furan-3-yl]-amide]	2480 nM
C[C@H](NC(=O)N[C@H]1CO[C@H]2[C@@H]1OC[C@@H]2Oc1ccc(F)cc1)c1ccccc1 [Example 161, 1-[(3S,3aR,6S,6aS)-6-(4-Fluoro-phenoxy)-hexahydro-furo[3,2-b]furan-3-yl]-3-((S)-1-phenyl-ethyl)-urea]	47 nM
O=C(NC1CCCCC1)N[C@H]1CO[C@H]2[C@@H]1OC[C@@H]2Oc1cc(F)cc(F)c1 [Example 133, 1-Cyclohexyl-3-[(3S,3aR,6S,6aS)-6-(3,5-difluoro-phenoxy)-hexahydro-furo[3,2-b]furan-3-yl]-urea]	< 1 nM
O=C(NC1CCCCC1)N(Cc1ccccc1)[C@H]1CO[C@@H]2[C@@H](CO)CO[C@@H]21 [Example 6, 1-benzyl-3-cyclohexyl-1-((3S,3aR,6S,6aR)-6-hydroxymethyl-hexahydro-furo[3,2-b]furan-3-yl)-urea]	8000 nM
O=C(NC1CCCCC1)N[C@H]1CO[C@H]2[C@@H]1OC[C@@H]2SC1CCS(=O)(=O)C1 (stereo partly drawn) [Example 25, 1-Cyclohexyl-3-[(3S,3aR,6S,6aS)-6-(1,1-dioxo-tetrahydro-1λ6-thiophen-3-ylsulfanyl)-hexahydro-furo[3,2-b]furan-3-yl]-urea]	8 nM
Cc1ncccc1O[C@H]1CO[C@H]2[C@@H]1OC[C@@H]2NC(=O)NCc1cccc2c1OCCO2 [Example 200, 1-(2,3-Dihydro-benzo[1,4]dioxin-5-ylmethyl)-3-[(3S,3aR,6S,6aS)-6-(2-methyl-pyridin-3-yloxy)-hexahydro-furo[3,2-b]furan-3-yl]-urea]	88 nM
NC(=O)c1cccc(O[C@H]2CO[C@H]3[C@@H]2OC[C@@H]3NC(=O)NC2CCCCC2)c1 [Example 143, 3-[(3S,3aS,6S,6aR)-6-(3-Cyclohexyl-ureido)-hexahydro-furo[3,2-b]furan-3-yloxy]-benzamide]	6 nM
O=C(NC1CCCCC1)N[C@H]1CO[C@H]2[C@@H]1OC[C@@H]2Oc1ccccc1CN1CCOCC1 [Example 123, 1-Cyclohexyl-3-[(3S,3aR,6S,6aS)-6-(2-morpholin-4-ylmethyl-phenoxy)-hexahydro-furo[3,2-b]furan-3-yl]-urea; trifluoroacetate]	4 nM
O=C(NC1CCCCC1)N[C@H]1CO[C@H]2[C@@H]1OC[C@@H]2Oc1cccc2c1CCC2=O [Example 144, 1-Cyclohexyl-3-[(3S,3aR,6S,6aS)-6-(1-oxo-indan-4-yloxy)-hexahydro-furo[3,2-b]furan-3-yl]-urea]	1 nM
Cc1ncccc1O[C@H]1CO[C@H]2[C@@H]1OC[C@@H]2NC(=O)NC1CCC(C)CC1C (stereo partly drawn) [Example 276, 1-(2,4-Dimethyl-cyclohexyl)-3-[(3S,3aR,6S,6aS)-6-(2-methyl-pyridin-3-yloxy)-hexahydro-furo[3,2-b]furan-3-yl]-urea]	1 nM
Cc1ncccc1O[C@H]1CO[C@H]2[C@@H]1OC[C@@H]2NC(=O)NC1CCCN(C(=O)c2ccc(F)cc2)C1 (stereo partly drawn) [Example 83, 1-[1-(4-fluoro-benzoyl)-piperidin-3-yl]-3-[(3S,3aR,6S,6aS)-6-(2-methyl-pyridin-3-yloxy)-hexahydro-furo[3,2-b]furan-3-yl]-urea]	182 nM
Cc1ncccc1O[C@H]1CO[C@H]2[C@@H]1OC[C@@H]2NC(=O)NCC1C[C@@H]2CC[C@H]1O2 (stereo partly drawn) [Example 239, 1-[(3S,3aR,6S,6aS)-6-(2-Methyl-pyridin-3-yloxy)-hexahydro-furo[3,2-b]furan-3-yl]-3-[(1R,4S)-1-(7-oxa-bicyclo[2.2.1]hept-2-yl)methyl]-urea]	78 nM
COc1cccc(CNC(=O)N[C@H]2CO[C@H]3[C@@H]2OC[C@@H]3Oc2cccnc2C)n1 [Example 202, 1-(6-Methoxy-pyridin-2-ylmethyl)-3-[(3S,3aR,6S,6aS)-6-(2-methyl-pyridin-3-yloxy)-hexahydro-furo[3,2-b]furan-3-yl]-urea]	345 nM
O=C(NC1CCCCC1)N[C@H]1CO[C@H]2[C@@H]1OC[C@@H]2Oc1ccc(C(F)(F)F)nc1 [Example 42, 1-Cyclohexyl-3-[(3S,3aR,6S,6aS)-6-(6-trifluoromethyl-pyridin-3-yloxy)-hexahydro-furo[3,2-b]furan-3-yl]-urea]	47 nM
Cc1ncccc1O[C@H]1CO[C@H]2[C@@H]1OC[C@@H]2NC(=O)NC(C)(C)c1cccnc1 [Example 233, 1-(1-Methyl-1-pyridin-3-yl-ethyl)-3-[(3S,3aR,6S,6aS)-6-(2-methyl-pyridin-3-yloxy)-hexahydro-furo[3,2-b]furan-3-yl]-urea]	3560 nM
Cc1ncccc1O[C@H]1CO[C@H]2[C@@H]1OC[C@@H]2NC(=O)NC1(C)COC1 [Example 240, 1-(3-Methyl-oxetan-3-yl)-3-[(3S,3aR,6S,6aS)-6-(2-methyl-pyridin-3-yloxy)-hexahydro-furo[3,2-b]furan-3-yl]-urea]	3430 nM
O=C(N[C@H]1CO[C@H]2[C@@H]1OC[C@@H]2Oc1ccc(F)cc1)N[C@@H]1CCC[C@H]1OCc1ccccc1 [Example 152, 1-((1R,2R)-2-Benzyloxy-cyclopentyl)-3-[(3S,3aR,6S,6aS)-6-(4-fluoro-phenoxy)-hexahydro-furo[3,2-b]furan-3-yl]-urea]	2 nM
O=C(NC1CCCCC1)N[C@H]1CO[C@H]2[C@@H]1OC[C@@H]2Oc1ccccn1 [Example 3, 1-cyclohexyl-3-[(3S,3aR,6S,6aS)-6-(pyridin-2-yloxy)-hexahydro-furo[3,2-b]furan-3-yl]-urea]	12 nM
O=C(NC1CCCCC1)N[C@H]1CO[C@H]2[C@@H]1OC[C@@H]2Sc1ncc(Cl)cn1 [Example 52, 1-[(3S,3aR,6S,6aS)-6-(5-Chloro-pyrimidin-2-ylsulfanyl)-hexahydro-furo[3,2-b]furan-3-yl]-3-cyclohexyl-urea]	1 nM
